Values of other authors, collected in patent publication US12201639B2, “Aqueous oral pharmaceutical suspension compositions” (ReveraGen BioPharma, Inc., priority 2019, dated 2025).

How the values were obtained:
glucocorticoid receptor = target: T1, glucocorticoid receptor (Homo sapiens, UniProt P04150); details: pre-clinical data
T1 sequence (P04150 1-777): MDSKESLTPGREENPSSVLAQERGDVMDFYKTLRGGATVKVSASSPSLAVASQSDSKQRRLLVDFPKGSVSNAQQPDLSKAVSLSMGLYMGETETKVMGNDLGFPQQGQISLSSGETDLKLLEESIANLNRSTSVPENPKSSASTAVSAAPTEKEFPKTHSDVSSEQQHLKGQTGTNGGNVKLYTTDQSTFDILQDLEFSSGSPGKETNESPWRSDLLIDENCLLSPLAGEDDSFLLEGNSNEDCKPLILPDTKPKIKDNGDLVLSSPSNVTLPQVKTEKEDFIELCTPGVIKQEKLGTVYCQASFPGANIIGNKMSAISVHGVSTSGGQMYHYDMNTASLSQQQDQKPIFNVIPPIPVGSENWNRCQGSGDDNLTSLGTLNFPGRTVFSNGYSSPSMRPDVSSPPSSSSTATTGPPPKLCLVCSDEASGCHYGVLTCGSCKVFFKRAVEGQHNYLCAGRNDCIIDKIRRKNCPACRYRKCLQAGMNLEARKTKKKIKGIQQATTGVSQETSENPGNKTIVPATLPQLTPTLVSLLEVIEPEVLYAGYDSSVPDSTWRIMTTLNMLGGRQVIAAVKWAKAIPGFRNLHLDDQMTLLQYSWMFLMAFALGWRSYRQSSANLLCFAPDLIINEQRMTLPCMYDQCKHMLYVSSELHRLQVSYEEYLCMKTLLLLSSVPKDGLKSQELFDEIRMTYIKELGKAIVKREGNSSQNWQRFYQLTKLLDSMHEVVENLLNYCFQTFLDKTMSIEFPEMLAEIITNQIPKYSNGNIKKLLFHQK

[1] = tested on: mouse models of inflammatory states; details: compared with prednisolone

binding to the glucocorticoid receptor (glucocorticoid receptor): binds potently
Compound: C[C@@H]1C[C@H]2[C@@H]3CCC4=CC(=O)C=C[C@]4(C)C3=CC[C@]2(C)[C@@]1(O)C(=O)CO [vamorolone, 17α,21-dihydroxy-16α-methylpregna-1,4,9 (11)-triene-3,20-dione]
side effect profiles (growth stunting, bone fragility) in mouse models [1]: dramatically improves side effect profiles
